{
  "source": "ChEMBL document CHEMBL1201862",
  "about": "“PubChem BioAssay data set” (2004)",
  "assay_in_all_cases": "NCI anticancer screen, dose series, 48 h",
  "key": {"MOLT-4": {"tested_on": "MOLT-4"}, "MCF7": {"tested_on": "MCF7"}, "HCT-15": {"tested_on": "HCT-15"}, "DU-145": {"tested_on": "DU-145"}, "786-0": {"tested_on": "786-0"}, "NCI-H23": {"tested_on": "NCI-H23"}, "HOP-92": {"tested_on": "HOP-92"}, "ACHN": {"tested_on": "ACHN"}, "Hs-578T": {"tested_on": "Hs-578T"}, "LOX IMVI": {"tested_on": "LOX IMVI"}, "UO-31": {"tested_on": "UO-31"}, "UACC-257": {"tested_on": "UACC-257"}, "CAKI-1": {"tested_on": "CAKI-1"}, "CCRF-CEM": {"tested_on": "CCRF-CEM"}, "RPMI-8226": {"tested_on": "RPMI-8226"}, "OVCAR-3": {"tested_on": "OVCAR-3"}, "A498": {"tested_on": "A498"}, "HCC 2998": {"tested_on": "HCC 2998"}, "KM12": {"tested_on": "KM12"}, "OVCAR-4": {"tested_on": "OVCAR-4"}},
  "note": "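Cultured in 96-well plates, cells were exposed to test compound for 48 hours across five concentrations. GI50 = concentration required for 50% inhibition of growth.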 Calls of active or inactive are those of the source. Rule as the data show it: active = GI50 up to about 1.1 µM and inactive = higher.",
  "data": [
    {"compound": "CCCc1cc(-c2ccc(-c3cc(CCC)c(C=O)[nH]3)s2)[nH]c1C=O", "values": [
      {"measurement": "GI50", "setting": "MOLT-4", "result": "2.9 µM (inactive)"},
      {"measurement": "GI50", "setting": "MCF7", "result": "64.3 µM (inactive)"},
      {"measurement": "GI50", "setting": "HCT-15", "result": 8.61, "unit": "µM"},
      {"measurement": "GI50", "setting": "DU-145", "result": "> 100 µM (inactive)"},
      {"measurement": "GI50", "setting": "786-0", "result": "14.4 µM (inactive)"},
      {"measurement": "GI50", "setting": "NCI-H23", "result": "> 37.1 µM (inactive)"},
      {"measurement": "GI50", "setting": "HOP-92", "result": "27.5 µM (inactive)"},
      {"measurement": "GI50", "setting": "ACHN", "result": "> 26.7 µM (inactive)"},
      {"measurement": "GI50", "setting": "Hs-578T", "result": "41.2 µM (inactive)"},
      {"measurement": "GI50", "setting": "LOX IMVI", "result": "5.89 µM (inactive)"},
      {"measurement": "GI50", "setting": "UO-31", "result": "22.6 µM (inactive)"},
      {"measurement": "GI50", "setting": "UACC-257", "result": "> 100 µM (inactive)"},
      {"measurement": "GI50", "setting": "CAKI-1", "result": "> 100 µM (inactive)"},
      {"measurement": "GI50", "setting": "CCRF-CEM", "result": "2.44 µM (inactive)"},
      {"measurement": "GI50", "setting": "RPMI-8226", "result": "> 100 µM (inactive)"},
      {"measurement": "GI50", "setting": "OVCAR-3", "result": "12.4 µM (inactive)"},
      {"measurement": "GI50", "setting": "A498", "result": "> 69.5 µM (inactive)"},
      {"measurement": "GI50", "setting": "HCC 2998", "result": "5.56 µM (inactive)"},
      {"measurement": "GI50", "setting": "KM12", "result": "> 27.9 µM (inactive)"},
      {"measurement": "GI50", "setting": "OVCAR-4", "result": "47.4 µM (inactive)"}
    ]},
    {"compound": "Cn1c(-c2ccc[se]2)ccc1-c1ccc(C=O)[se]1", "values": [
      {"measurement": "GI50", "setting": "MOLT-4", "result": "7.43 µM (inactive)"},
      {"measurement": "GI50", "setting": "MCF7", "result": "0.124 µM (active)"},
      {"measurement": "GI50", "setting": "HCT-15", "result": 8.15, "unit": "µM"},
      {"measurement": "GI50", "setting": "DU-145", "result": "29.4 µM (inactive)"},
      {"measurement": "GI50", "setting": "786-0", "result": "20.9 µM (inactive)"},
      {"measurement": "GI50", "setting": "NCI-H23", "result": "12.4 µM (inactive)"},
      {"measurement": "GI50", "setting": "HOP-92", "result": "10.5 µM (inactive)"},
      {"measurement": "GI50", "setting": "ACHN", "result": "46.6 µM (inactive)"},
      {"measurement": "GI50", "setting": "Hs-578T", "result": "25.2 µM (inactive)"},
      {"measurement": "GI50", "setting": "LOX IMVI", "result": "8.99 µM (inactive)"},
      {"measurement": "GI50", "setting": "UO-31", "result": "> 76.4 µM (inactive)"},
      {"measurement": "GI50", "setting": "UACC-257", "result": "0.796 µM (active)"},
      {"measurement": "GI50", "setting": "CAKI-1", "result": "0.195 µM (active)"},
      {"measurement": "GI50", "setting": "CCRF-CEM", "result": "0.859 µM (active)"},
      {"measurement": "GI50", "setting": "RPMI-8226", "result": "1.03 µM (active)"},
      {"measurement": "GI50", "setting": "OVCAR-3", "result": "0.366 µM (active)"},
      {"measurement": "GI50", "setting": "A498", "result": "1.17 µM (inactive)"},
      {"measurement": "GI50", "setting": "HCC 2998", "result": "2.47 µM (inactive)"},
      {"measurement": "GI50", "setting": "KM12", "result": "> 100 µM (inactive)"},
      {"measurement": "GI50", "setting": "OVCAR-4", "result": "0.247 µM (active)"}
    ]},
    {"compound": "O=C1NC(c2ccccc2)C1N(Cc1ccccc1)Cc1ccccc1", "note": "(stereo not given)", "values": [
      {"measurement": "GI50", "setting": "MOLT-4", "result": "> 100 µM (inactive)"},
      {"measurement": "GI50", "setting": "MCF7", "result": "> 100 µM (inactive)"},
      {"measurement": "GI50", "setting": "HCT-15", "result": "> 100", "unit": "µM"},
      {"measurement": "GI50", "setting": "DU-145", "result": "> 100 µM (inactive)"},
      {"measurement": "GI50", "setting": "786-0", "result": "> 100 µM (inactive)"},
      {"measurement": "GI50", "setting": "NCI-H23", "result": "> 100 µM (inactive)"},
      {"measurement": "GI50", "setting": "HOP-92", "result": "> 100 µM (inactive)"},
      {"measurement": "GI50", "setting": "ACHN", "result": "> 100 µM (inactive)"},
      {"measurement": "GI50", "setting": "Hs-578T", "result": "61.2 µM (inactive)"},
      {"measurement": "GI50", "setting": "LOX IMVI", "result": "> 100 µM (inactive)"},
      {"measurement": "GI50", "setting": "UO-31", "result": "> 100 µM (inactive)"},
      {"measurement": "GI50", "setting": "UACC-257", "result": "> 100 µM (inactive)"},
      {"measurement": "GI50", "setting": "CAKI-1", "result": "> 100 µM (inactive)"},
      {"measurement": "GI50", "setting": "CCRF-CEM", "result": "> 100 µM (inactive)"},
      {"measurement": "GI50", "setting": "RPMI-8226", "result": "> 100 µM (inactive)"},
      {"measurement": "GI50", "setting": "OVCAR-3", "result": "> 100 µM (inactive)"},
      {"measurement": "GI50", "setting": "A498", "result": "> 100 µM (inactive)"},
      {"measurement": "GI50", "setting": "HCC 2998", "result": "> 100 µM (inactive)"},
      {"measurement": "GI50", "setting": "KM12", "result": "> 100 µM (inactive)"},
      {"measurement": "GI50", "setting": "OVCAR-4", "result": "59.8 µM (inactive)"}
    ]},
    {"compound": "S=C1Cc2cc3ccccc3nc2-c2ccccc2N1", "values": [
      {"measurement": "GI50", "setting": "MOLT-4", "result": "> 96.8 µM (inactive)"},
      {"measurement": "GI50", "setting": "MCF7", "result": "38.9 µM (inactive)"},
      {"measurement": "GI50", "setting": "HCT-15", "result": 42.3, "unit": "µM"},
      {"measurement": "GI50", "setting": "DU-145", "result": "70.8 µM (inactive)"},
      {"measurement": "GI50", "setting": "786-0", "result": "12.6 µM (inactive)"},
      {"measurement": "GI50", "setting": "NCI-H23", "result": "23.9 µM (inactive)"},
      {"measurement": "GI50", "setting": "HOP-92", "result": "8.87 µM (inactive)"},
      {"measurement": "GI50", "setting": "ACHN", "result": "24 µM (inactive)"},
      {"measurement": "GI50", "setting": "Hs-578T", "result": "5.64 µM (inactive)"},
      {"measurement": "GI50", "setting": "LOX IMVI", "result": "33.4 µM (inactive)"},
      {"measurement": "GI50", "setting": "UO-31", "result": "9.06 µM (inactive)"},
      {"measurement": "GI50", "setting": "UACC-257", "result": "29.1 µM (inactive)"},
      {"measurement": "GI50", "setting": "CAKI-1", "result": "29.6 µM (inactive)"},
      {"measurement": "GI50", "setting": "CCRF-CEM", "result": "> 100 µM (inactive)"},
      {"measurement": "GI50", "setting": "RPMI-8226", "result": "> 50.7 µM (inactive)"},
      {"measurement": "GI50", "setting": "OVCAR-3", "result": "9.57 µM (inactive)"},
      {"measurement": "GI50", "setting": "A498", "result": "6.31 µM (inactive)"},
      {"measurement": "GI50", "setting": "HCC 2998", "result": "16.2 µM (inactive)"},
      {"measurement": "GI50", "setting": "KM12", "result": "19.3 µM (inactive)"},
      {"measurement": "GI50", "setting": "OVCAR-4", "result": "12.4 µM (inactive)"}
    ]},
    {"compound": "Cc1ccc(C(=O)CCl)o1", "values": [
      {"measurement": "GI50", "setting": "MOLT-4", "result": "2.13 µM (inactive)"},
      {"measurement": "GI50", "setting": "MCF7", "result": "3.52 µM (inactive)"},
      {"measurement": "GI50", "setting": "HCT-15", "result": 4.93, "unit": "µM"},
      {"measurement": "GI50", "setting": "DU-145", "result": "> 10 µM (inactive)"},
      {"measurement": "GI50", "setting": "786-0", "result": "4.28 µM (inactive)"},
      {"measurement": "GI50", "setting": "NCI-H23", "result": "5.37 µM (inactive)"},
      {"measurement": "GI50", "setting": "HOP-92", "result": "> 10 µM (inactive)"},
      {"measurement": "GI50", "setting": "ACHN", "result": "> 10 µM (inactive)"},
      {"measurement": "GI50", "setting": "Hs-578T", "result": "> 10 µM (inactive)"},
      {"measurement": "GI50", "setting": "LOX IMVI", "result": "2.98 µM (inactive)"},
      {"measurement": "GI50", "setting": "UO-31", "result": "> 4.67 µM (inactive)"},
      {"measurement": "GI50", "setting": "UACC-257", "result": "> 9.2 µM (inactive)"},
      {"measurement": "GI50", "setting": "CAKI-1", "result": "3.12 µM (inactive)"},
      {"measurement": "GI50", "setting": "CCRF-CEM", "result": "2.39 µM (inactive)"},
      {"measurement": "GI50", "setting": "RPMI-8226", "result": "2.33 µM (inactive)"},
      {"measurement": "GI50", "setting": "OVCAR-3", "result": "> 7.23 µM (inactive)"},
      {"measurement": "GI50", "setting": "A498", "result": "> 10 µM (inactive)"},
      {"measurement": "GI50", "setting": "HCC 2998", "result": "> 10 µM (inactive)"},
      {"measurement": "GI50", "setting": "KM12", "result": "> 10 µM (inactive)"},
      {"measurement": "GI50", "setting": "OVCAR-4", "result": "4.15 µM (inactive)"}
    ]}
  ]
}
